The record followed here is patent publication US12344623B2, “Thiazolopyridine derivatives as adenosine receptor antagonists” (Merck Patent GmbH, priority 2019, dated 2025).

What all share (assay type): cell-based
For experiment [1], the target named is T1, human A2A receptor (Homo sapiens, UniProt P29274). The experiment can be described thus: Human T cells, endogenous A2A receptor, cAMP, agonist NECA. The note with it: read-out: hTcell data, cAMP, IC50. The protocol:
The endogenous functional activity of the Gs-coupled human A2A receptor was measured in T cells, where this receptor is highly expressed. Determination of receptor activity was done by quantification of cAMP, which is a second messenger for adenosine receptors.
In short, human pan T cells were isolated from human PBMC (MACS Pan T Cell Isolation Kit, Miltenyi Biotec) that have been derived from fresh whole blood. The T cells were seeded in 384-well microtiter plates and treated with test compounds. […] Finally, HTRF reagents (cAMP Femto Kit, CisBio) were added to the wells, and after 1 h cellular cAMP levels were determined using the ENVISION (Perkin Elmer) plate reader.
The obtained raw data were normalized against the inhibitor control and the neutral control (DMSO) and the normalized data were fitted using Genedata Screener software.

The target in the next experiment is T2, human A2B receptor (Homo sapiens, UniProt P29275).
T2 construct: expressed in transfected cells; host or cells: HEK293
T2 sequence (P29275 1-332): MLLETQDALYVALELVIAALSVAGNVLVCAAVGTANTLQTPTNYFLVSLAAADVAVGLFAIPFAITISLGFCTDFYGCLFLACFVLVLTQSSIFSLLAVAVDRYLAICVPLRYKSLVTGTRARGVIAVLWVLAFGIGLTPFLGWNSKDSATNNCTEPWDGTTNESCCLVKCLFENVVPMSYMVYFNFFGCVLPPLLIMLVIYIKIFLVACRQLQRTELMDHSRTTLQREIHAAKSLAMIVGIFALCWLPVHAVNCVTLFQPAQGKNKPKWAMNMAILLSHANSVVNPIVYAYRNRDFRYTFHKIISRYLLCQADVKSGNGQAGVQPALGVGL
The experiment can be described thus: Functional A2B receptor activity, recombinant HEK293 cells, cAMP (HTRF), agonist NECA. The following applies: read-out: Functional A2B receptor activity, HEK293, cAMP, IC50. The procedure, abridged:
(§1)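 Forskolin, test compounds and agonist were added together to the cells and incubated for 30 min. Cellular cAMP was then quantified by HTRF. Raw signals were normalized to an inhibitor control and a neutral DMSO control, and the normalized data were curve-fitted.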

A further experiment addresses T3, human A1 receptor (Homo sapiens, UniProt P30542).
T3 construct: expressed in transfected cells; host or cells: CHO
T3 sequence (P30542 1-326): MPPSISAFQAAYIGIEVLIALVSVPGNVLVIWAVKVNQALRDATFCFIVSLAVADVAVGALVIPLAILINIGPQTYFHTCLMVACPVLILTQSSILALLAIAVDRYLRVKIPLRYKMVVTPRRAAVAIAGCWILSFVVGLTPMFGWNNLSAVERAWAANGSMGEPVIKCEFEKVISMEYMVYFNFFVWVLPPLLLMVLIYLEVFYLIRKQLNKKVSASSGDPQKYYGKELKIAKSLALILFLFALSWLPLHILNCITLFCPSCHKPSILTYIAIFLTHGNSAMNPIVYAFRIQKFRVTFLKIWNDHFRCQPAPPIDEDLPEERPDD
The experiment can be described thus: Functional A1 receptor activity, recombinant CHO cells, cAMP (HTRF), forskolin, agonist CPA. The following applies: recombinant CHO cells, forskolin, agonist CPA, read-out: Functional A1 receptor activity, CHO, cAMP, IC50. In outline:
(§2)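 Gi-coupled readout: CHO cells expressing human A1 or A3 receptor were treated with forskolin, test compound and agonist (CPA for A1, IB-MECA for A3) for 30 min; cellular cAMP was then measured by HTRF. Data were normalized to inhibitor and DMSO controls and curve-fitted.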
A general note: Time-resolved FRET reads energy transfer from a long-lived donor to a nearby acceptor.

In another experiment the target is T4, human A3 receptor (Homo sapiens, UniProt P0DMS8).
T4 construct: expressed in transfected cells; host or cells: CHO
T4 sequence (P0DMS8 1-318): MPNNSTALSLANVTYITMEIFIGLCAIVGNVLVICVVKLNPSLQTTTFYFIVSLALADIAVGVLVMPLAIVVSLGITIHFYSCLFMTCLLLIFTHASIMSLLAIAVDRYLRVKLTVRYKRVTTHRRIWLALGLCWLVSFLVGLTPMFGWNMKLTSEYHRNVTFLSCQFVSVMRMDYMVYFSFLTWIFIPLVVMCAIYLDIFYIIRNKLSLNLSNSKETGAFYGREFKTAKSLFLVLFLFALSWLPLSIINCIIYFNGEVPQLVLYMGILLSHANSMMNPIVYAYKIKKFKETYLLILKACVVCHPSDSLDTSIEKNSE
The experiment can be described thus: Functional A3 receptor activity, recombinant CHO cells, cAMP (HTRF), forskolin, agonist IB-MECA. The note with it: recombinant CHO cells, forskolin, agonist IB-MECA, read-out: Functional A3 receptor activity, CHO, cAMP, IC50. The procedure, abridged: as §2

In experiment [2] the target is T1, human A2A receptor. The experiment can be described thus: Functional A2A receptor activity, recombinant HEK293 cells, cAMP (HTRF), agonist NECA. The following applies: read-out: Functional A2A receptor activity, HEK293, cAMP, IC50. Details: expressed in transfected cells; host or cells: HEK293. The procedure, abridged: as §1

Where two headings read alike, the source gives them in different places.

T1 sequence (P29274 whole entry): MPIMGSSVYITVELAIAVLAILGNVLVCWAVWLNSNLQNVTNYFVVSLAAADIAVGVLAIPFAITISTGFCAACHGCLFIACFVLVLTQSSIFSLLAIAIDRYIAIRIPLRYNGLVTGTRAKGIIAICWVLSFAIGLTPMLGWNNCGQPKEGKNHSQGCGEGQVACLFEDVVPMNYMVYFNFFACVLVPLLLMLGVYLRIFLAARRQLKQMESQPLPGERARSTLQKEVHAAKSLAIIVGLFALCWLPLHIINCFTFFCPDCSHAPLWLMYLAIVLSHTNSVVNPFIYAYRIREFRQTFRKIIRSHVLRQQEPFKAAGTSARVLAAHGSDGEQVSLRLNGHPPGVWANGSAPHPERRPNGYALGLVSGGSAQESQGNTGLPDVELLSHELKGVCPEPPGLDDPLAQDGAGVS

What is called IC50 is the midpoint of a concentration-inhibition curve. With `COc1cnc(N2CCOCC2)c2sc(NC(=O)N3CCC(CO)CC3)nc12` [drawing 217], the IC50 on human A2A receptor [1] is below 1000 nM.
Regarding `COc1ccc(-c2ccccc2)c2sc(NC(=O)NCCN3CCCCC3)nc12` [drawing 216], the IC50 on human A2A receptor [1] is below 1000 nM.
Still for that read-out and setting: then `COc1cnc(N2CCOCC2)c2sc(NC(=O)N3CCC4(CCCO4)CC3)nc12` [drawing 218], with below 1000 nM; and `COc1cnc(N2CCOCC2)c2sc(NC(=O)N3CCC(O)CC3)nc12`, with below 1000 nM.
On to `COc1ncc(C2=CCOCC2)c2sc(NC(=O)Nc3ccc(N4CCOC4=O)cc3)nc12` [Compound 95, 3-[7-(3,6-dihydro-2H-pyran-4-yl)-4-methoxy-[1,3]thiazolo[4,5-c]pyridin-2-yl]-1-[4-(2-oxo-1,3-oxazolidin-3-yl)phenyl]urea], for which the IC50 at human A2B receptor was below 10 nM; at human A1 receptor, below 1000 nM; on human A3 receptor it was below 1000 nM; on human A2A receptor [2], below 10 nM.
On to `COc1ncc(C2=CC(=O)CC2)c2sc(NC(=O)N3CCC4(CCOCC4)C3)nc12` [Compound 40, 8-Oxa-2-aza-spiro[4.5]decane-2-carboxylic acid [4-methoxy-7-(3-oxo-cyclopent-1-enyl)-thiazolo[4,5-c]pyridin-2-yl]-amide], for which the IC50 was below 100 nM at human A2B receptor, above 1000 nM on human A1 receptor, above 1000 nM on human A3 receptor and below 100 nM on human A2A receptor [2].
For the molecule `COc1ncc(-c2cnn(Cc3ccccc3)c2)c2sc(NC(=O)N3CCC4(CCOCC4)C3)nc12` [Compound 76, 8-Oxa-2-aza-spiro[4.5]decane-2-carboxylic acid [7-(1-benzyl-1H-pyrazol-4-yl)-4-methoxy-thiazolo[4,5-c]pyridin-2-yl]-amide], the IC50 at human A2B receptor is below 10 nM; on human A1 receptor, below 100 nM; at human A3 receptor it was above 1000 nM; on human A2A receptor [2] it was below 10 nM.
For `COc1cnc(C2CCOCC2)c2sc(NC(=O)N3CCC(O)CC3)nc12` [drawing 190, reference compound], the IC50 was below 1000 nM at human A2B receptor, above 1000 nM on human A1 receptor (cAMP), below 1000 nM at human A3 receptor (cAMP) and below 100 nM at human A2A receptor [2].
On to `COc1ccc(N2CCOCC2)c2sc(NC(=O)N3CCCCC3)nc12` [drawing 191, reference compound], for which the IC50 is below 1000 nM on human A2B receptor, above 1000 nM on human A1 receptor (cAMP), below 1000 nM at human A3 receptor (cAMP) and below 10 nM on human A2A receptor [2].
As to `COc1ncc(-c2ccnc(N)c2)c2sc(NC(=O)N3CCC4(CCOCC4)C3)nc12` [Compound 124, 8-Oxa-2-aza-spiro[4.5]decane-2-carboxylic acid [7-(2-amino-pyridin-4-yl)-4-methoxy-thiazolo[4,5-c]pyridin-2-yl]-amide], the IC50 is below 10 nM on human A2B receptor, above 1000 nM at human A1 receptor, above 1000 nM on human A3 receptor and below 10 nM at human A2A receptor [2].
Turning to `COc1ncc(-c2cnn(C(F)F)c2)c2sc(NC(=O)N3CCC4(CCOCC4)C3)nc12` [Compound 79, 8-Oxa-2-aza-spiro[4.5]decane-2-carboxylic acid [7-(1-difluoromethyl-1H-pyrazol-4-yl)-4-methoxy-thiazolo[4,5-c]pyridin-2-yl]-amide], the IC50 is below 100 nM at human A2B receptor, below 1000 nM on human A1 receptor, above 1000 nM at human A3 receptor and below 10 nM on human A2A receptor [2].
For `COc1nc(F)c(-c2ccc(F)cc2)c2sc(NC(=O)N3CCC(C)(O)CC3)nc12` [Compound 27, 4-Hydroxy-4-methyl-piperidine-1-carboxylic acid [6-fluoro-7-(4-fluoro-phenyl)-4-methoxy-thiazolo[4,5-c]pyridin-2-yl]-amide], in that order: below 10 nM, below 1000 nM, above 1000 nM and below 10 nM.
For `COc1nc(F)c(-c2ccccc2)c2sc(NC(=O)c3c[nH]cn3)nc12` [Compound 32, 1H-Imidazole-4-carboxylic acid (6-fluoro-4-methoxy-7-phenyl-thiazolo[4,5-c]pyridin-2-yl)-amide], in that order: below 10 nM, below 100 nM, above 1000 nM and below 10 nM.
For `COCCNc1ncc(C(=O)Nc2nc3c(OC)ncc(C4=CCOCC4)c3s2)s1` [Compound 81, N-[7-(3,6-dihydro-2H-pyran-4-yl)-4-methoxy-[1,3]thiazolo[4,5-c]pyridin-2-yl]-2-[(2-methoxyethyl)amino]-1,3-thiazole-5-carboxamide], in that order: below 10 nM, below 1000 nM, above 1000 nM and below 10 nM.
Take `COc1ncc(-c2cccc(O)c2)c2sc(NC(=O)N3CCC4(CCOCC4)C3)nc12` [Compound 153, 8-Oxa-2-aza-spiro[4.5]decane-2-carboxylic acid [7-(3-hydroxy-phenyl)-4-methoxy-thiazolo[4,5-c]pyridin-2-yl]-amide]: the IC50 on human A2B receptor is below 10 nM; at human A1 receptor it was below 1000 nM; at human A3 receptor, above 1000 nM; at human A2A receptor [2], below 10 nM.
`COc1nc(F)c(N2CCOCC2)c2sc(NC(=O)N3CCC4(CCOC4)C3)nc12` (centres unmarked) [Compound 16, N-[6-fluoro-4-methoxy-7-(morpholin-4-yl)-[1,3]thiazolo[4,5-c]pyridin-2-yl]-2-oxa-7-azaspiro[4.4]nonane-7-carboxamide]: the IC50 at human A2B receptor is below 100 nM; at human A1 receptor it was above 1000 nM; on human A3 receptor, above 1000 nM; on human A2A receptor [2], below 10 nM.
As to `COc1ncc(-c2ccccc2)c2sc(NC(=O)c3ccc(-c4nnn[nH]4)cc3)nc12` [Compound 110, N-{4-methoxy-7-phenyl-[1,3]thiazolo[4,5-c]pyridin-2-yl}-4-(1H-1,2,3,4-tetrazol-5-yl)benzamide], the IC50 was below 100 nM on human A2B receptor, above 1000 nM at human A1 receptor, above 1000 nM on human A3 receptor and below 10 nM on human A2A receptor [2].
Consider `COc1ncc(C2=CCOCC2)c2sc(NC(=O)N3CCC4(CCOC4)C3)nc12` (centres unmarked) [Compound 108, N-[7-(3,6-dihydro-2H-pyran-4-yl)-4-methoxy-[1,3]thiazolo[4,5-c]pyridin-2-yl]-2-oxa-7-azaspiro[4.4]nonane-7-carboxamide], for which the IC50 at human A2B receptor was below 10 nM; on human A1 receptor it was below 1000 nM; on human A3 receptor it was above 1000 nM; at human A2A receptor [2], below 10 nM.
`COc1nc(F)c(C2CCOCC2)c2sc(NC(=O)N3CCC4(CCOC4)C3)nc12` (centres unmarked) [Compound 33, N-[6-fluoro-4-methoxy-7-(oxan-4-yl)-[1,3]thiazolo[4,5-c]pyridin-2-yl]-2-oxa-7-azaspiro[4.4]nonane-7-carboxamide]: the IC50 at human A2B receptor was below 100 nM; on human A1 receptor, above 1000 nM; at human A3 receptor it was above 1000 nM; on human A2A receptor [2], below 10 nM.
Regarding `COc1ncc(C2CCCCC2)c2sc(NC(=O)N3CCC4(CCOCC4)C3)nc12` [Compound 62, 8-Oxa-2-aza-spiro[4.5]decane-2-carboxylic acid (7-cyclohexyl-4-methoxy-thiazolo[4,5-c]pyridin-2-yl)-amide], the IC50 was below 100 nM at human A2B receptor, above 1000 nM at human A1 receptor, above 1000 nM at human A3 receptor and below 10 nM on human A2A receptor [2].
